These results are taken from paper PMC5896373 (Molecular Pharmacology, 2018).

The target in one test is T1, P2X7R point mutant F103A (Homo sapiens, UniProt Q99572, F103A/I21V/M24R/N16P/N25R/Q22R/R20V/S23N/T19I/Y26L).
T1 construct: expressed in transfected cells; host or cells: Xenopus laevis oocytes (cRNA injection)
Description: cell-based.

Test [1] deals with T2, chimeric P2X7/1 receptor 122–128 (Homo sapiens, UniProt Q99572, DEL124-124/I21V/L128I/M24R/N16P/N25R/Q22R/R125E/R126G/R20V/S23N/T127G/T19I/Y122H/Y26L).
T2 construct: expressed in transfected cells; host or cells: Xenopus laevis oocytes (cRNA injection)
T2 sequence (Q99572 with tags, fused parts or gaps N16P/T19I/R20V/I21V/Q22R/S23N/M24R/N25R/Y26L/Y122H/DEL124-124/R125E/R126G/T127G/L128I): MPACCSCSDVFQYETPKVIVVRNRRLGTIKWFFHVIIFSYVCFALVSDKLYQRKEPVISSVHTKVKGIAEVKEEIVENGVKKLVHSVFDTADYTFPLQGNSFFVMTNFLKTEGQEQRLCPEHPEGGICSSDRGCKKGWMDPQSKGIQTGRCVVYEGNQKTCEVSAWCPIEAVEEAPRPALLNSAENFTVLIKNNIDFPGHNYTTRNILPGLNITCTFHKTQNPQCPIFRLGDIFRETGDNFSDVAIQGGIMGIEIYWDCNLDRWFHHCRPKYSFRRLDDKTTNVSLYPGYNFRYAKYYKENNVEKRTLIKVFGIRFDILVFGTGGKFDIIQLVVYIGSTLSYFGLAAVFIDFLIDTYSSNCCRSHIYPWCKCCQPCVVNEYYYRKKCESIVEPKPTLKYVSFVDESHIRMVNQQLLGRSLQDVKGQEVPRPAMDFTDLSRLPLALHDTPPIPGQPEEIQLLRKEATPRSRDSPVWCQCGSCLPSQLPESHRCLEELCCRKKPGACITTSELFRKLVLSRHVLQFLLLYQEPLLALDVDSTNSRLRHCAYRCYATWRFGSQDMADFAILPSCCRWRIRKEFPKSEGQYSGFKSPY
Description: Two-electrode voltage clamp of ATP-evoked currents in Xenopus oocytes. Type of test: cell-based. In general terms: Two-electrode voltage clamp is typically applied to oocytes expressing channels or transporters.
Description: (§1) Additional point mutants were made using the QuikChange mutagenesis kit (Stratagene California, La Jolla, CA). The production of the correct mutations and absence of coding errors was determined by DNA sequencing (Automated ABI Sequencing Service, University of Leicester, UK). cRNA was generated for the mutants and 50 nl (50 ng) was injected into manually defoliculated stage V Xenopus laevis oocytes using an Inject+Matic microinjector (J.A. Gabay, Inject+Matic, Geneva, Switzerland). Injected oocytes were stored at 16°C in ND96 buffer [in millimolar concentrations, NaCl 96, KCl 2, CaCl2 1.8, MgCl2 1, sodium pyruvate 5, and HEPES 5 (pH 7.6) supplemented with 50 μg/ml gentamycin and 50 μg/ml tetracycline]. Three to seven days postinjection two-electrode voltage clamp recordings were made from oocytes bathed in divalent-free ND96 buffer (in millimolar concentrations, NaCl 96, KCl 2, sodium pyruvate 5, HEPES 5, and 0.1 flufenamic acid, pH 7.6). Oocytes were voltage clamped at a holding potential of −60 mV with a GeneClamp500B amplifier (Molecular Devices).
(§2) Inhibition by the antagonists was expressed as the percentage of the peak current amplitude of an EC90 concentration of ATP recorded before the application of antagonist (ATP gave reproducible responses to ATP in the absence of antagonist). Inhibition curves were fitted with the Hill equation (variable slope) using GraphPad Prism 6 (GraphPad Software, San Diego, CA). […] Individual concentration-response curves were generated for individual experiments, and statistical analysis was carried out on the data generated. […] Data are shown as mean ± S.E.M. In all cases n ≥ 3 for all data points.

A further test concerns the target T3, P2X7R point mutant T308A (Homo sapiens, UniProt Q99572, I21V/M24R/N16P/N25R/Q22R/R20V/S23N/T19I/T308A/Y26L).
T3 construct: expressed in transfected cells; host or cells: Xenopus laevis oocytes (cRNA injection)
The test is described as above. It counts as cell-based. The note with it: EC90 ATP, mean ± S.E.M.

The target of another test is T4, P2X7R point mutant P96A (Homo sapiens, UniProt Q99572, I21V/M24R/N16P/N25R/P96A/Q22R/R20V/S23N/T19I/Y26L).
T4 construct: expressed in transfected cells; host or cells: Xenopus laevis oocytes (cRNA injection)
T4 sequence (Q99572 whole entry N16P/T19I/R20V/I21V/Q22R/S23N/M24R/N25R/Y26L/P96A): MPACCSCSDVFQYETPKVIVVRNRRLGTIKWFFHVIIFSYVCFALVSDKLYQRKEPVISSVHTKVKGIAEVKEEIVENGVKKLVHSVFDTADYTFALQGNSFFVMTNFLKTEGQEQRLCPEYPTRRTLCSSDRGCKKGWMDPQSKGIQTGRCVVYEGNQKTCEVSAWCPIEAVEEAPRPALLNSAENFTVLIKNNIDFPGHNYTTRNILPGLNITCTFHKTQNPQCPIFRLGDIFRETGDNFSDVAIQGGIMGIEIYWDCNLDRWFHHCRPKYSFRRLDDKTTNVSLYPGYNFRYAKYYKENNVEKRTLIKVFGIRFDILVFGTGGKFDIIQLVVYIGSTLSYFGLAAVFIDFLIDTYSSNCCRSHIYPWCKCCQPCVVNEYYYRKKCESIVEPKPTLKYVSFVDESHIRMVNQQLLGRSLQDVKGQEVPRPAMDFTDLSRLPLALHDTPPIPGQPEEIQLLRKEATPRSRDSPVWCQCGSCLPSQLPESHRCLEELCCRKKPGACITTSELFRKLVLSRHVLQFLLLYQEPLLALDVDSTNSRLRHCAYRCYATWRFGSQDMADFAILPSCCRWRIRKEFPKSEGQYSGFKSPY
Described as above. It counts as cell-based. As to conditions: EC90 ATP, mean ± S.E.M.

The next test addresses T5, P2X7R point mutant F88W (Homo sapiens, UniProt Q99572, F88W/I21V/M24R/N16P/N25R/Q22R/R20V/S23N/T19I/Y26L).
T5 construct: expressed in transfected cells; host or cells: Xenopus laevis oocytes (cRNA injection)
Described as above. Type of test: cell-based. As to conditions: EC90 ATP, mean ± S.E.M.

Another test has as its target T6, P2X7R point mutant H85P (Homo sapiens, UniProt Q99572, H85P/I21V/M24R/N16P/N25R/Q22R/R20V/S23N/T19I/Y26L).
T6 construct: expressed in transfected cells; host or cells: Xenopus laevis oocytes (cRNA injection)
Described as above. It counts as cell-based. As to conditions: EC90 ATP, mean ± S.E.M.

The target in the next test is T7, P2X7R point mutant Y93A (Homo sapiens, UniProt Q99572, I21V/M24R/N16P/N25R/Q22R/R20V/S23N/T19I/Y26L/Y93A).
T7 construct: expressed in transfected cells; host or cells: Xenopus laevis oocytes (cRNA injection)
T7 sequence (Q99572 whole entry N16P/T19I/R20V/I21V/Q22R/S23N/M24R/N25R/Y26L/Y93A): as the sequence (Q99572 whole entry N16P/T19I/R20V/I21V/Q22R/S23N/M24R/N25R/Y26L/P96A) above, with Y93A, A96P counted along it
Described as above. It counts as cell-based. As to conditions: EC90 ATP, mean ± S.E.M.

The next test addresses T8, P2X7R point mutant V304C (Homo sapiens, UniProt Q99572, I21V/M24R/N16P/N25R/Q22R/R20V/S23N/T19I/V304C/Y26L).
T8 construct: expressed in transfected cells; host or cells: Xenopus laevis oocytes (cRNA injection)
The test is described as above. Type of test: cell-based. As to conditions: EC90 ATP, mean ± S.E.M.

The target of test [2] is T9, chimeric P2X7/1 receptor 112–118 (Homo sapiens, UniProt Q99572, E112P/E115T/G113K/I21V/L118Y/M24R/N16P/N25R/Q22R/R117G/R20V/S23N/T19I/Y26L).
T9 construct: expressed in transfected cells; host or cells: Xenopus laevis oocytes (cRNA injection)
T9 sequence (Q99572 whole entry N16P/T19I/R20V/I21V/Q22R/S23N/M24R/N25R/Y26L/E112P/G113K/E115T/R117G/L118Y): as the sequence (Q99572 whole entry N16P/T19I/R20V/I21V/Q22R/S23N/M24R/N25R/Y26L/P96A) above, with A96P, E112P, G113K, E115T, R117G, L118Y counted along it
Description: cell-based. It counts as cell-based.
Description: as §1, §2

A further test addresses T10, P2X7R point mutant K110Y (Homo sapiens, UniProt Q99572, I21V/K110Y/M24R/N16P/N25R/Q22R/R20V/S23N/T19I/Y26L).
T10 construct: expressed in transfected cells; host or cells: Xenopus laevis oocytes (cRNA injection)
T10 sequence (Q99572 1-595 N16P/T19I/R20V/I21V/Q22R/S23N/M24R/N25R/Y26L/K110Y): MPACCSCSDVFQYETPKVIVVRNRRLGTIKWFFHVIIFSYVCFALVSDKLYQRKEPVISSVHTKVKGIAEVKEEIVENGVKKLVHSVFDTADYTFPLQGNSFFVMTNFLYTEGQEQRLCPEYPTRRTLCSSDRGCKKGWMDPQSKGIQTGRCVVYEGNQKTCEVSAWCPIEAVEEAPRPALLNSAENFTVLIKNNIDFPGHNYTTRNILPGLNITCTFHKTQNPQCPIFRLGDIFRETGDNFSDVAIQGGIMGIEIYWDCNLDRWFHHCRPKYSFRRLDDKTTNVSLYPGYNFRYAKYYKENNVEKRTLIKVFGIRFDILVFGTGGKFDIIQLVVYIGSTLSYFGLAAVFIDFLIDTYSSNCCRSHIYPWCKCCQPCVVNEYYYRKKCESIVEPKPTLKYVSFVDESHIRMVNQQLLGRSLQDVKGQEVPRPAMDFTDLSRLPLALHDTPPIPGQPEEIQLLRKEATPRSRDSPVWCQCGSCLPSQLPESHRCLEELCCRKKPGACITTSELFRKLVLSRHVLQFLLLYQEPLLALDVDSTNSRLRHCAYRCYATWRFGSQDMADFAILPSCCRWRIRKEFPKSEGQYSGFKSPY
Kind of test: Two-electrode voltage clamp of ATP-evoked currents in Xenopus oocytes. It counts as cell-based.

T5 sequence (Q99572 whole entry N16P/T19I/R20V/I21V/Q22R/S23N/M24R/N25R/Y26L/F88W): as the sequence (Q99572 whole entry N16P/T19I/R20V/I21V/Q22R/S23N/M24R/N25R/Y26L/P96A) above, with F88W, A96P counted along it
T1 sequence (Q99572 whole entry N16P/T19I/R20V/I21V/Q22R/S23N/M24R/N25R/Y26L/F103A): as the sequence (Q99572 whole entry N16P/T19I/R20V/I21V/Q22R/S23N/M24R/N25R/Y26L/P96A) above, with A96P, F103A counted along it
T6 sequence (Q99572 whole entry N16P/T19I/R20V/I21V/Q22R/S23N/M24R/N25R/Y26L/H85P): as the sequence (Q99572 whole entry N16P/T19I/R20V/I21V/Q22R/S23N/M24R/N25R/Y26L/P96A) above, with H85P, A96P counted along it
T3 sequence (Q99572 whole entry N16P/T19I/R20V/I21V/Q22R/S23N/M24R/N25R/Y26L/T308A): as the sequence (Q99572 whole entry N16P/T19I/R20V/I21V/Q22R/S23N/M24R/N25R/Y26L/P96A) above, with A96P, T308A counted along it
T8 sequence (Q99572 whole entry N16P/T19I/R20V/I21V/Q22R/S23N/M24R/N25R/Y26L/V304C): as the sequence (Q99572 whole entry N16P/T19I/R20V/I21V/Q22R/S23N/M24R/N25R/Y26L/P96A) above, with A96P, V304C counted along it
Description for P2X7R point mutant F103A: (§3) Injected oocytes were stored at 16°C in ND96 buffer [in millimolar concentrations, NaCl 96, KCl 2, CaCl2 1.8, MgCl2 1, sodium pyruvate 5, and HEPES 5 (pH 7.6) supplemented with 50 μg/ml gentamycin and 50 μg/ml tetracycline]. Three to seven days postinjection two-electrode voltage clamp recordings were made from oocytes bathed in divalent-free ND96 buffer (in millimolar concentrations, NaCl 96, KCl 2, sodium pyruvate 5, HEPES 5, and 0.1 flufenamic acid, pH 7.6). Oocytes were voltage clamped at a holding potential of −60 mV with a GeneClamp500B amplifier (Molecular Devices).
Inhibition by the antagonists was expressed as the percentage of the peak current amplitude of an EC90 concentration of ATP recorded before the application of antagonist (ATP gave reproducible responses to ATP in the absence of antagonist). Inhibition curves were fitted with the Hill equation (variable slope) using GraphPad Prism 6 (GraphPad Software, San Diego, CA). […] Individual concentration-response curves were generated for individual experiments, and statistical analysis was carried out on the data generated. When shown in figures, the inhibition curves are fitted to the mean normalized data. […] Data are shown as mean ± S.E.M. In all cases n ≥ 3 for all data points.
Description for P2X7R point mutant F88W: as §1
(§4) Inhibition by the antagonists was expressed as the percentage of the peak current amplitude of an EC90 concentration of ATP recorded before the application of antagonist (ATP gave reproducible responses to ATP in the absence of antagonist). […]
Description for P2X7R point mutant H85P: as §1, §4
Description for P2X7R point mutant K110Y: as §1, §2
Description for P2X7R point mutant P96A: as §3, §2
Description for P2X7R point mutant T308A: as §3, §2
Description for P2X7R point mutant V304C: as §3, §2
Description for P2X7R point mutant Y93A: as §3, §2

Turning to `COc1ccc(CC(=O)NC(N=C(NC#N)Nc2cccc3ncccc23)C(C)(C)C)cc1OC` (stereo not shown) [A740003, N-[1-[[(cyanoamino)(5-quinolinylamino)methylene]amino]-2,2-dimethylpropyl]-3,4-dimethoxybenzeneacetamide], the IC50 against P2X7R point mutant F103A was 631 nM; in test [1], 100 nM; against P2X7R point mutant T308A, 100 nM; at P2X7R point mutant P96A it was 316 nM; against P2X7R point mutant F88W, 158 nM; at P2X7R point mutant H85P it was 398 nM. Besides, the 50% inhibitory concentration (IC50) was 100 nM at P2X7R point mutant Y93A, 100 nM against P2X7R point mutant V304C, 251 nM in [2] and 100 nM against P2X7R point mutant K110Y. For the same compound, in test [1] (chimera 122–128), the “effect on antagonist potency relative to P2X7-2Nβ” value was “no effect”. Also, on P2X7R point mutant K110Y (K110Y), the “effect on antagonist sensitivity relative to P2X7-2Nβ” value is “no effect”.
Take `Cl.Clc1cccc(-c2nnnn2Cc2cccnc2)c1Cl.O` [A438079, 3-(5-(2,3-dichlorophenyl)-1H-tetrazol-1-yl)methyl pyridine hydrochloride hydrate]: the IC50 on P2X7R point mutant F103A was above 100000 nM; in test [1] it was 794 nM; against P2X7R point mutant T308A it was 1000 nM; on P2X7R point mutant P96A, 12600 nM; on P2X7R point mutant F88W, 3160 nM; on P2X7R point mutant H85P, 1000 nM. Further, the 50% inhibitory concentration (IC50) against P2X7R point mutant Y93A was 3980 nM; on P2X7R point mutant V304C it was 63.1 nM; in test [2], 3160 nM; against P2X7R point mutant K110Y, 794 nM.

Usually IC50 stands for the concentration at which inhibition is half-maximal. A higher IC50 goes with weaker potency.
